Patent US8106055B2, “Substituted amide compounds” (Gruenenthal GmbH, priority 2007, dated 2012)

Experiments:
[1] = molecular target: T1, bradykinin 1 receptor (B1R) of the rat (Rattus norvegicus, UniProt P97583); assay: Functional investigation on the rat bradykinin 1 receptor (B1R), Ca2+ FLIPR assay in CHO K1 rB1R cells; type: cell-based; settings: B1R antagonism rat; test substance 10 μM; Ca2+ FLIPR, CHO K1 rB1R cells
T1 construct: expressed in transfected cells; host or cells: CHO K1 cells
T1 sequence (P97583 1-337): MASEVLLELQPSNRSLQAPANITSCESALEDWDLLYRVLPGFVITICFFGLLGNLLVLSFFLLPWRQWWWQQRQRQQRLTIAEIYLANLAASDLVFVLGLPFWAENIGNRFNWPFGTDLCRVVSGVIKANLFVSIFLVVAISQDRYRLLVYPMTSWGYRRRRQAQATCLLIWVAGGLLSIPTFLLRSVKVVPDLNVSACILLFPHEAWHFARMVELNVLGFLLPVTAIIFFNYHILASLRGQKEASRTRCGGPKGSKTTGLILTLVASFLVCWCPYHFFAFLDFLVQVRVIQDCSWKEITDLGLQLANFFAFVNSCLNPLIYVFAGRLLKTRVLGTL
Procedure, shortened: (§1)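 Peak Ca2+-dependent fluorescence in B1R-transfected CHO K1 cells measures antagonism of an EC80 agonist challenge given 10-20 min after compound. Agonist is Lys-Des-Arg9-bradykinin for human, Des-Arg9-bradykinin for rat receptor.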

[2] = molecular target: T2, human bradykinin 1 receptor (B1R) (Homo sapiens, UniProt P46663); assay: Functional investigation on the human bradykinin 1 receptor (B1R), Ca2+ FLIPR assay in CHO K1 hB1R cells; type: cell-based; settings: B1R antagonism human; test substance 10 μM; Ca2+ FLIPR, CHO K1 hB1R cells
T2 construct: expressed in transfected cells; host or cells: CHO K1 cells
T2 sequence (P46663 1-353): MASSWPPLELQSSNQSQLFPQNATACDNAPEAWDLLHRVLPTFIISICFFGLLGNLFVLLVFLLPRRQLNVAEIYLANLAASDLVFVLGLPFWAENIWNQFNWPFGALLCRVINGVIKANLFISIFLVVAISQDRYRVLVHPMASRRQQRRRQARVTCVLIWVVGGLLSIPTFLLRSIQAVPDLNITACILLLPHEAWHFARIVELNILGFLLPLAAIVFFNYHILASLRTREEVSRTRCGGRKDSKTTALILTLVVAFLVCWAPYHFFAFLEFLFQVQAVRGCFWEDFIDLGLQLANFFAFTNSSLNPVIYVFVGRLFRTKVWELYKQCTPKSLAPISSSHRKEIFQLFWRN
Procedure, shortened: as §1

COc1ccc(S(=O)(=O)N(C)CCOCC(=O)NCCC2CCC(C(c3ccc(Cl)cc3)N(C)C)CC2)cc1 (stereo not shown) [Example 460] was tested, and the “B1R Ant. r [10 μM] % Inhibition” value [1] was 71% and the “B1R Ant. h [10 μM] % Inhibition” value [2] was 50%.
For COc1ccc(S(=O)(=O)N(C)CCOCC(=O)NCCC2CCC(C(c3ccc(F)cc3)N(C)C)CC2)cc1OC (stereo not shown) [Example 484], the “B1R Ant. r [10 μM] % Inhibition” value [1] was 19% and the “B1R Ant. h [10 μM] % Inhibition” value [2] was −21%.
In the case of CN(C)C(c1ccc(F)cc1)C1CCC(CCNC(=O)COC2CCCN(S(=O)(=O)c3ccccc3)C2)CC1 (stereo not shown) [Example 520], the “B1R Ant. r [10 μM] % Inhibition” value [1] was 24% and the “B1R Ant. h [10 μM] % Inhibition” value [2] was −4%.
For COc1cc(C)c(S(=O)(=O)N(CCOCC(=O)NCC2CCC(C(c3ccc(Cl)cc3)N(C)C)CC2)Cc2ccccc2)c(C)c1 (stereo not shown) [Example 473], the “B1R Ant. r [10 μM] % Inhibition” value [1] was −3% and the “B1R Ant. h [10 μM] % Inhibition” value [2] was 52%.
For COc1cc(C)c(S(=O)(=O)N2CCC(CCOCC(=O)NCC3CCC(C(c4ccc(F)cc4)N(C)C)CC3)CC2)c(C)c1C (stereo not shown) [Example 481], the “B1R Ant. r [10 μM] % Inhibition” value [1] was 49% and the “B1R Ant. h [10 μM] % Inhibition” value [2] was 9%.
COc1cc(C)c(S(=O)(=O)N2CCCC(OCC(=O)NCCC3CCC(C(c4ccc(Cl)cc4)N(C)C)CC3)C2)c(C)c1C (stereo not shown) [Example 485] was tested, and the “B1R Ant. r [10 μM] % Inhibition” value [1] was 6% and the “B1R Ant. h [10 μM] % Inhibition” value [2] was 5%.
With CN(C)C(c1ccc(F)cc1)C1CCC(CNC(=O)COC2CCN(S(=O)(=O)c3ccc(F)cc3)C2)CC1 (stereo not shown) [Example 522] the “B1R Ant. r [10 μM] % Inhibition” value [1] was 12% and the “B1R Ant. h [10 μM] % Inhibition” value [2] was 1%.
For Cc1cc(C)c(S(=O)(=O)N2CCC(OCC(=O)NCCC3CCC(C(c4ccc(F)cc4)N(C)C)CC3)C2)c(C)c1 (stereo not shown) [Example 501], the “B1R Ant. r [10 μM] % Inhibition” value [1] was 38% and the “B1R Ant. h [10 μM] % Inhibition” value [2] was 77%.
With CN(C)C(CCc1ccccc1)C1CCC(CNC(=O)COCCN(Cc2ccccc2)S(=O)(=O)c2ccccc2)CC1 (stereo not shown) [Example 533] the “B1R Ant. r [10 μM] % Inhibition” value [1] was 12% and the “B1R Ant. h [10 μM] % Inhibition” value [2] was 35%.
For CCN(CCOCC(=O)NCC1CCC(C(CCc2ccccc2)N(C)C)CC1)S(=O)(=O)c1c(C)cc(OC)c(C)c1C (stereo not shown) [Example 536], the “B1R Ant. r [10 μM] % Inhibition” value [1] was 95% and the “B1R Ant. h [10 μM] % Inhibition” value [2] was 105%.
For CN(C)C(c1ccc(F)cc1)C1CCC(CCNC(=O)COC2CCN(S(=O)(=O)c3ccc(Cl)cc3)C2)CC1 (stereo not shown) [Example 464], the “B1R Ant. r [10 μM] % Inhibition” value [1] was −6% and the “B1R Ant. h [10 μM] % Inhibition” value [2] was −2%.
For COc1cc(C)c(S(=O)(=O)N2CCC(OCC(=O)NCC3CCC(C(c4ccc(F)cc4)N(C)C)CC3)C2)c(C)c1 (stereo not shown) [Example 541], the “B1R Ant. r [10 μM] % Inhibition” value [1] was 104% and the “B1R Ant. h [10 μM] % Inhibition” value [2] was 100%.
For CN(C)C(c1ccc(F)cc1)C1CCC(CNC(=O)COC2CCCN(S(=O)(=O)c3ccccc3)C2)CC1 (stereo not shown) [Example 488], the “B1R Ant. r [10 μM] % Inhibition” value [1] was −6% and the “B1R Ant. h [10 μM] % Inhibition” value [2] was 4%.
With COc1ccc(S(=O)(=O)N2CCCCC2CCOCC(=O)NCC2CCC(C(CCc3ccccc3)N(C)C)CC2)cc1 (stereo not shown) [Example 535] the “B1R Ant. r [10 μM] % Inhibition” value [1] was 72% and the “B1R Ant. h [10 μM] % Inhibition” value [2] was 77%.
In the case of CN(C)C(c1ccc(F)cc1)C1CCC(CCNC(=O)COC2CCN(S(=O)(=O)c3cccc(C(F)(F)F)c3)C2)CC1 (stereo not shown) [Example 466], the “B1R Ant. r [10 μM] % Inhibition” value [1] was 22% and the “B1R Ant. h [10 μM] % Inhibition” value [2] was 7%.
With COc1ccc(S(=O)(=O)N(C)CCOCC(=O)NCC2CCC(C(c3ccc(F)cc3)N(C)C)CC2)cc1OC (stereo not shown) [Example 514] the “B1R Ant. r [10 μM] % Inhibition” value [1] was 22% and the “B1R Ant. h [10 μM] % Inhibition” value [2] was −6%.
With COc1ccc(S(=O)(=O)N2CCCC2COCC(=O)NC2CCC(C(c3ccc(F)cc3)N(C)C)CC2)cc1 (stereo not shown) [Example 461] the “B1R Ant. r [10 μM] % Inhibition” value [1] was 20% and the “B1R Ant. h [10 μM] % Inhibition” value [2] was 13%.
